Data: patent publication US20240368118A1, “CEREBLON BINDING COMPOUNDS, COMPOSITIONS THEREOF, AND METHODS OF TREATMENT THEREWITH” (CELGENE CORPORATION, priority 2021, published 2024)
Structures can show the parent of a compound that is named as a salt.

Biological target: T1, AR (Homo sapiens, UniProt P10275)
T1 construct: endogenous in cells; host or cells: VCaP cells
T1 sequence (P10275 1-920): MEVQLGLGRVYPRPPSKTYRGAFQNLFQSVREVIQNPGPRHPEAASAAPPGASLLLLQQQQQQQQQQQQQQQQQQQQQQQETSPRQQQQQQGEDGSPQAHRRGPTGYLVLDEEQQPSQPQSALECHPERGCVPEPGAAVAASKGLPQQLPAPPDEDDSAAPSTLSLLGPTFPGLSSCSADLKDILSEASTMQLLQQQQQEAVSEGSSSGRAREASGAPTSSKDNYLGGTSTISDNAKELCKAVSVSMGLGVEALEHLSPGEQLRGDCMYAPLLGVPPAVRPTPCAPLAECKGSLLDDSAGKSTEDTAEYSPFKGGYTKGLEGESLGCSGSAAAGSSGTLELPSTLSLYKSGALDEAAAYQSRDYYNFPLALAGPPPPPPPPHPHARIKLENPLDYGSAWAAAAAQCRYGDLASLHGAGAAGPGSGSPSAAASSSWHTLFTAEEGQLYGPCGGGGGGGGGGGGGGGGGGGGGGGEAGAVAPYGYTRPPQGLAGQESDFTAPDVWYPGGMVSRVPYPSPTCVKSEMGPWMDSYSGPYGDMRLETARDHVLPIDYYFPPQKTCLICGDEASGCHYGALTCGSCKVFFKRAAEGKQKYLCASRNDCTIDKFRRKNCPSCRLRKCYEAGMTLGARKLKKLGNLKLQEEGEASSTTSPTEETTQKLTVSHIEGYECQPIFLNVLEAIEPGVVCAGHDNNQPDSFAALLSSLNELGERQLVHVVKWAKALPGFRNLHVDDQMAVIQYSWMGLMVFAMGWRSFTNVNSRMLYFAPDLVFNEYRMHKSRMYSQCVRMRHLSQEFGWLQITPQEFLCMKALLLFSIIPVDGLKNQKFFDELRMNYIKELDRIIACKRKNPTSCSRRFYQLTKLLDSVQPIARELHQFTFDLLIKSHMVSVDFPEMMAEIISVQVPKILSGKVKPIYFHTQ
Assay: VCAP AR Degradation Assay
Assay type: cell-based
Conditions: VCaP cells, 24 h; for DC50: AR ELISA, concentration when AR level = 50% of DMSO control; for Ymin: lowest AR level normalized to DMSO control
Protocol: VCAP AR Degradation Assay. Test compounds were pre-dispensed into a Corning CellBind 96-well clear bottom plate (Cat #3300) using an acoustic dispenser to make a 10-point concentration series at 1:3 dilution for each compound. The final top concentration of each compound was 5 μM. DMSO at a final concentration of 0.1% was used as a control. VCaP cells cultured in DMEM with 8% fetal bovine serum (FBS) were seeded at 50K cells per well in a 200 μL volume into the compound plate and incubated at 37° C. in a C02 incubator for 24 h. The medium was carefully removed from the cells and the plate was placed on ice. One hundred μL of ice-cold 1× cell lysis buffer from Cell Signaling Technologies (Cat #9803) was added to each well of the cells and the plate was incubated at 4° C. on a shaker for 1 h. Fifteen μL of cell lysate was used for AR ELISA detection using a PathScan Total Sandwich AR ELISA kit (Cell Signaling Technology, Cat #12580). AR levels in compound-treated wells were normalized to that of DMSO control and expressed as percent of control (PoC) (y). A Four Parameter Logistic Model (Sigmoidal Dose-Response Model) was used to determine the compound's DC50, and EC50, using the following equation: […]
The lowest measured AR level normalized to DMSO control in response to compound treatment, termed Y value, was used to characterize the compound-mediated AR degradation efficiency.

Row | SMILES | DC50 [nM] | Ymin (class symbols) | Ymin (given as numbers)
1 | C[C@@H]1CN(CCO[C@H]2CC[C@H](N3C(=S)N(c4cnc(C#N)c(C(F)(F)F)c4)C(=O)C3(C)C)CC2)C[C@H](C)N1CC(=O)Nc1ccc(C2CCC(=O)NC2=O)cc1 (stereo partly drawn) [Cmpd 6, 2-((2R,6S)-4-(2-((trans-4-(3-(6-Cyano-5-(trifluoromethyl)pyridin-3-yl)-5,5-dimethyl-4-oxo-2-thioxoimidazolidin-1-yl)cyclohexyl)oxy)ethyl)-2,6-dimethylpiperazin-1-yl)-N-(4-(2,6-dioxopiperidin-3-yl)phenyl)acetamide hydrochloride] | ≤ 5 | *** (30%<Y<80%) | 
2 | C[C@@H]1CN(CCCO[C@H]2CC[C@H](N3C(=S)N(c4ccc(C#N)c(C(F)(F)F)c4)C(=O)C3(C)C)CC2)C[C@H](C)N1CC(=O)Nc1ccc(C2CCC(=O)NC2=O)cc1 (stereo partly drawn) [Cmpd 12, 2-((2R,6S)-4-(3-((trans-4-(3-(4-Cyano-3-(trifluoromethyl)phenyl)-5,5-dimethyl-4-oxo-2-thioxoimidazolidin-1-yl)cyclohexyl)oxy)propyl)-2,6-dimethylpiperazin-1-yl)-N-(4-(2,6-dioxopiperidin-3-yl)phenyl)acetamide hydrochloride] | ≤ 5 | ** (20%<Y≤30%) | 
3 | C[C@@H]1CN(CCO[C@H]2CC[C@H](N3C(=S)N(c4cnc(C#N)c(Cl)c4)C(=O)C3(C)C)CC2)C[C@H](C)N1CC(=O)Nc1ccc(C2CCC(=O)NC2=O)cc1 (stereo partly drawn) [Cmpd 11, 2-((2R,6S)-4-(2-((trans-4-(3-(5-Chloro-6-cyanopyridin-3-yl)-5,5-dimethyl-4-oxo-2-thioxoimidazolidin-1-yl)cyclohexyl)oxy)ethyl)-2,6-dimethylpiperazin-1-yl)-N-(4-(2,6-dioxopiperidin-3-yl)phenyl)acetamide hydrochloride] | ≤ 5 | ** (20%<Y≤30%) | 
4 | CC[C@]1(c2ccc(NC(=O)CN3[C@H](C)CN(CCO[C@H]4CC[C@H](N5C(=S)N(c6ccc(C#N)c(C(F)(F)F)c6)C(=O)C5(C)C)CC4)C[C@@H]3C)cc2)CCC(=O)NC1=O [Cmpd 7, 2-((2S,6R)-4-(2-((trans-4-(3-(4-Cyano-3-(trifluoromethyl)phenyl)-5,5-dimethyl-4-oxo-2-thioxoimidazolidin-1-yl)cyclohexyl)oxy)ethyl)-2,6-dimethylpiperazin-1-yl)-N-(4-((R)-3-ethyl-2,6-dioxopiperidin-3-yl)phenyl)acetamide hydrochloride] | 100 to 10000 | *** (30%<Y<80%) | 
5 | C[C@@H]1C[C@H](OCCO[C@H]2CC[C@H](N3C(=S)N(c4ccc(C#N)c(C(F)(F)F)c4)C(=O)C3(C)C)CC2)C[C@H](C)N1CC(=O)Nc1ccc(C2CCC(=O)NC2=O)cc1 (stereo partly drawn) [Cmpd 42, 2-((2R,4r,6S)-4-(2-(((trans)-4-(3-(4-Cyano-3-(trifluoromethyl)phenyl)-5,5-dimethyl-4-oxo-2-thioxoimidazolidin-1-yl)cyclohexyl)oxy)ethoxy)-2,6-dimethylpiperidin-1-yl)-N-(4-(2,6-dioxopiperidin-3-yl)phenyl)acetamide] | 5 to 15 |  | 19 % of DMSO control
6 | C[C@@H]1C[C@H](CCO[C@H]2CC[C@H](N3C(=S)N(c4cnc(C#N)c(C(F)(F)F)c4)C(=O)C3(C)C)CC2)C[C@H](C)N1CC(=O)Nc1ccc(C2CCC(=O)NC2=O)cc1 (stereo partly drawn) [Cmpd 27, 2-((2R,4r,6S)-4-(2-(((trans)-4-(3-(6-Cyano-5-(trifluoromethyl)pyridin-3-yl)-5,5-dimethyl-4-oxo-2-thioxoimidazolidin-1-yl)cyclohexyl)oxy)ethyl)-2,6-dimethylpiperidin-1-yl)-N-(4-(2,6-dioxopiperidin-3-yl)phenyl)acetamide] | ≤ 5 |  | 11 % of DMSO control
7 | C[C@@H]1CN(CCC[C@H]2CC[C@H](N3C(=S)N(c4ccc(C#N)c(C(F)(F)F)c4)C(=O)C3(C)C)CC2)C[C@H](C)N1CC(=O)Nc1ccc(C2CCC(=O)NC2=O)cc1 (stereo partly drawn) [Cmpd 3, 2-((2R,6S)-4-(3-(trans-4-(3-(4-Cyano-3-(trifluoromethyl)phenyl)-5,5-dimethyl-4-oxo-2-thioxoimidazolidin-1-yl)cyclohexyl)propyl)-2,6-dimethylpiperazin-1-yl)-N-(4-(2,6-dioxopiperidin-3-yl)phenyl)acetamide hydrochloride] | 5 to 15 | ** (20%<Y≤30%) | 
8 | C[C@@H]1CN(CCCO[C@H]2CC[C@H](N3C(=S)N(c4ccc(C#N)c(Cl)c4)C(=O)C3(C)C)CC2)C[C@H](C)N1CC(=O)Nc1ccc(C2CCC(=O)NC2=O)cc1 (stereo partly drawn) [Cmpd 14, 2-((2R,6S)-4-(3-((trans-4-(3-(3-Chloro-4-cyanophenyl)-5,5-dimethyl-4-oxo-2-thioxoimidazolidin-1-yl)cyclohexyl)oxy)propyl)-2,6-dimethylpiperazin-1-yl)-N-(4-(2,6-dioxopiperidin-3-yl)phenyl)acetamide hydrochloride] | ≤ 5 | * (0<Y≤20%) | 
9 | CC1(C)C(=O)N(c2ccc(C#N)c(C(F)(F)F)c2)C(=S)N1[C@H]1CC[C@H](OCCC2CCN(CC(=O)Nc3ccc(C4CCC(=O)NC4=O)cc3)CC2(F)F)CC1 (stereo partly drawn) [Cmpd 43, 2-(4-(2-(((trans)-4-(3-(4-Cyano-3-(trifluoromethyl)phenyl)-5,5-dimethyl-4-oxo-2-thioxoimidazolidin-1-yl)cyclohexyl)oxy)ethyl)-3,3-difluoropiperidin-1-yl)-N-(4-(2,6-dioxopiperidin-3-yl)phenyl)acetamide] | ≤ 5 |  | 18 % of DMSO control
10 | C[C@@H]1CN(CCCC[C@H]2CC[C@H](N3C(=S)N(c4ccc(C#N)c(C(F)(F)F)c4)C(=O)C3(C)C)CC2)C[C@H](C)N1CC(=O)Nc1cccc(N2CCC(=O)NC2=O)c1 [Cmpd 25, 2-((2R,6S)-4-(4-((trans)-4-(3-(4-Cyano-3-(trifluoromethyl)phenyl)-5,5-dimethyl-4-oxo-2-thioxoimidazolidin-1-yl)cyclohexyl)butyl)-2,6-dimethylpiperazin-1-yl)-N-(3-(2,4-dioxotetrahydropyrimidin-1(2H)-yl)phenyl)acetamide] | 5 to 15 |  | 24 % of DMSO control
11 | C[C@@H]1CN(CCCC[C@H]2CC[C@H](N3C(=S)N(c4ccc(C#N)c(C(F)(F)F)c4)C(=O)C3(C)C)CC2)C[C@H](C)N1CC(=O)Nc1ccc(N2CCC(=O)NC2=O)cc1 [Cmpd 26, 2-((2R,6S)-4-(4-((trans)-4-(3-(4-Cyano-3-(trifluoromethyl)phenyl)-5,5-dimethyl-4-oxo-2-thioxoimidazolidin-1-yl)cyclohexyl)butyl)-2,6-dimethylpiperazin-1-yl)-N-(4-(2,4-dioxotetrahydropyrimidin-1(2H)-yl)phenyl)acetamide] | 5 to 15 |  | 25 % of DMSO control
12 | C[C@@H]1CN(CCC[C@H]2CC[C@H](N3C(=S)N(c4cnc(C#N)c(C(F)(F)F)c4)C(=O)C3(C)C)CC2)C[C@H](C)N1CC(=O)Nc1ccc(C2CCC(=O)NC2=O)cc1 (stereo partly drawn) [Cmpd 15, 2-((2R,6S)-4-(3-(trans-4-(3-(6-Cyano-5-(trifluoromethyl)pyridin-3-yl)-5,5-dimethyl-4-oxo-2-thioxoimidazolidin-1-yl)cyclohexyl)propyl)-2,6-dimethylpiperazin-1-yl)-N-(4-(2,6-dioxopiperidin-3-yl)phenyl)acetamide hydrochloride] | ≤ 5 | ** (20%<Y≤30%) | 
